Measurements as given in ChEMBL document CHEMBL1201862, “PubChem BioAssay data set” (2004).
Calls of active or inactive are those of the source.

Key:
[1] = target: T1, Kappa-type opioid receptor (Homo sapiens, UniProt P41145); type: functional
[2] = target: Nonstructural protein 1 (Influenza A virus, UniProt Q194T2); type: functional, Influenza A virus (A/California/07/2009(H1N1))
[3] = decrease of insulin promoter-GFP reporter – imaging, high-content screening, mouse beta cells (AID 1628); type: functional; details: MIN6
[4] = reduction of Shn3 3'UTR-driven luciferase in osteoblasts – cell-based, Clone20 osteoblasts, firefly luciferase, cherry-picked, dose response (AID 624132); type: functional;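 further: firefly luciferase luminescence from reporter carrying the Shn3 3'UTR in osteoblasts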
[5] = tested on: Streptococcus; assay: GAS UMAA2166 growth inhibition – luminescence, BacTiterGlo, counter-screen for streptokinase expression inhibitor project, dose response (AID 1915); type: functional, organism-based;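 further: potency for reduction of bacterial viability or growth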
[6] = tested on: INS1; assay: INS-1E survival protection against cytokine death – cell-based, luminescence, retest, dose response (AID 449756); type: functional; details: Rattus norvegicus;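 further: cell death triggered by IL-1 beta plus TNF-alpha plus IFN-gamma mixture; protective hits raise ATP signal compared with cytokine alone wells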
[7] = target: T2, Delta-type opioid receptor (Homo sapiens, UniProt P41143); assay: HTS Image-Based Screen for Agonists of the DOR Receptor. [Related pubchem assays (depositor defined):AID1777, AID1786, AID2133]; type: functional
[8] = target: Mu-type opioid receptor (Homo sapiens, UniProt P35372); assay: HTS Image-Based Screen for Agonists of the MOR Receptor. [Related pubchem assays (depositor defined):AID1777, AID1785, AID1786, AID2133]; type: functional;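 further: imaging of beta-arrestin GFP recruitment into spots after receptor activation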
[9] = target: T2, Delta-type opioid receptor; assay: HTS Image-Based Screen for Antagonists of the DOR Receptor. [Related pubchem assays (depositor defined):AID1777, AID1785, AID1786, AID2133]; type: functional
[10] = tested on: Streptococcus sp. 'group A'; assay: Streptococcus pyogenes SK(-)GAS viability under kanamycin – luminescence, BacTiterGlo, confirmation, counter-screen for streptokinase expression inhibitor project, dose response (AID 1900); type: functional, organism-based
[11] = luciferase reporter signal suppression in cells – H4 neuroglioma cells, luminescence, dose response (AID 1990); type: functional, cell-based
[12] = MIN6 cell viability loss – mouse insulinoma, cytotoxicity control, dose response (AID 2122); type: functional;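 further: confirmatory high-throughput counterscreen run to flag cytotoxic compounds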
[13] = target: T1, Kappa-type opioid receptor; type: functional; remark: listed apart in the source
[14] = NIH3T3 cell viability loss – ATP luminescence, mouse fibroblasts, counter-screen, dose response (AID 2010); type: functional, cell-based;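 further: cells exposed to compound for about 90 hours before reading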
[15] = non-specific 3'UTR reporter inhibition in Clone20-Shn3RL – cell-based, Renilla luciferase, cherry-picked, counter-screen for Shn3 inhibitor project, dose response (AID 624133); type: functional
[16] = Trypanosoma cruzi growth suppression in host cells – NIH3T3 host cells, beta-gal luminescence, confirmation (AID 2044); type: functional, cell-based;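 further: intracellular parasites grown in NIH/3T3 mouse fibroblasts as host cells; luminescent beta-galactosidase reporter signal from transgenic T. cruzi replicating inside host cells; inhibitors lower the luminescence signal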
[17] = target: T3, Streptokinase A (Streptococcus pyogenes serotype M1, UniProt P10520); assay: viability-normalized secreted streptokinase activity reduction – plasminogen activation absorbance, OD405, dose response (AID 1914); type: functional, Streptococcus pyogenes M1 GAS;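 further: secreted streptokinase activity via plasminogen activation per viability signal from cell pellet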
T3 sequence (P10520 whole entry): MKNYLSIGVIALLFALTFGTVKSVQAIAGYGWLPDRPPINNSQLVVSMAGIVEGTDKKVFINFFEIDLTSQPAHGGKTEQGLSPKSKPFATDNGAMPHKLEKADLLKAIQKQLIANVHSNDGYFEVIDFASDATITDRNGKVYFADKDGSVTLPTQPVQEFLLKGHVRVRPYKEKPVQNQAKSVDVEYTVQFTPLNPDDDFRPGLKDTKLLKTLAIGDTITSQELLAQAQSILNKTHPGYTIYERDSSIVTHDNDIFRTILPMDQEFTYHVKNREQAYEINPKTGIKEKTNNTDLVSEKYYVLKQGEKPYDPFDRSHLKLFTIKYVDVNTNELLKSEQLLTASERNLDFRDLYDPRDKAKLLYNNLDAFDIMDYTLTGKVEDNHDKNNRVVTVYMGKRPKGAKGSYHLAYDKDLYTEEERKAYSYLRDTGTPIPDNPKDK

[18] = target: T4, Short transient receptor potential channel 4 (Mus musculus, UniProt Q9QUQ5); assay: block of DAMGO-driven TRPC4 calcium entry – cell-based, HEK293 TRPC4/mu-opioid, Fluo-4 calcium, dose response (AID 434942); type: functional;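 further: potency of inhibitors blocking the TRPC4 calcium response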
T4 sequence (Q9QUQ5 whole entry): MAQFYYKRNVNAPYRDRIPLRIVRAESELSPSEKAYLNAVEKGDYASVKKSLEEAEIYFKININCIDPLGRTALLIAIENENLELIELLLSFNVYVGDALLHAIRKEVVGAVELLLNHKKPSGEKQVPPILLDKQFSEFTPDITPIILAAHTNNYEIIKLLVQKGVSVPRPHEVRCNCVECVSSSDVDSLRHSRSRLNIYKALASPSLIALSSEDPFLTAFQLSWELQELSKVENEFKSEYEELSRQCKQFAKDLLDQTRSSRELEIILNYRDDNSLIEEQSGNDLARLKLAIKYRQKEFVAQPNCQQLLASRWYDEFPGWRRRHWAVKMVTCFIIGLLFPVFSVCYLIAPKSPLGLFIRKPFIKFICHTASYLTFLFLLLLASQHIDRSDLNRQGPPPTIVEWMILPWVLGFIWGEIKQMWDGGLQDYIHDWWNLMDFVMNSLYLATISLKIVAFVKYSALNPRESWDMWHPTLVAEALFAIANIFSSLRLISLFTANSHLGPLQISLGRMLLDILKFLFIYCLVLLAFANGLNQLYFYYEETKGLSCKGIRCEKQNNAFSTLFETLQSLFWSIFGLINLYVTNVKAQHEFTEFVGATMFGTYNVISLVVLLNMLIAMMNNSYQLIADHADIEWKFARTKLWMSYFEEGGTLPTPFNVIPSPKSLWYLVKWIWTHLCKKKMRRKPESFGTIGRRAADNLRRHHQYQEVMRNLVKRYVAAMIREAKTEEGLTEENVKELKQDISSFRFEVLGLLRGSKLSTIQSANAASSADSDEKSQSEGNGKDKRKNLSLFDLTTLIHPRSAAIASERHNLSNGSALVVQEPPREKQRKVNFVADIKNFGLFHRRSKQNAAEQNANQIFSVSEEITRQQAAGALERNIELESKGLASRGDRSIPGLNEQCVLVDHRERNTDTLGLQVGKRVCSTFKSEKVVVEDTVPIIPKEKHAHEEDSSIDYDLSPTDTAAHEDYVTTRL

[19] = viability of HCT116 lacking mutant beta-catenin – cell-based, human colon tumor, dose response (AID 1045); type: functional;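 further: HCT116 colon tumor cells with beta catenin knocked out; cells exposed to compound for 60 hours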
[20] = loss of viability in HepG2 cells – cell-based, CellTiter-Glo, cherry-picked, cytotoxicity control for Shn3 inhibitor project, dose response (AID 624134); type: functional
[21] = cells; type: functional, cell-based
[22] = viability of PTEN-deleted HCT116 cells – cell-based, HCT116 PTEN knockout, dose response (AID 1047); type: functional;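 further: HCT116 colon tumor cells with PTEN knocked out; cells exposed to compound for 60 hours before readout; potency for loss of cell viability measured by luminescence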
[23] = cells; type: functional, cell-based; remark: listed apart in the source
[24] = alpha-synuclein stem-loop luciferase translation blockers – H4 neuroglioma cells, luminescence, confirmation (AID 1988); type: functional, cell-based
[25] = target: Beta-galactosidase (Escherichia coli, UniProt Q8VNN2); type: functional
[26] = microbe, parasite or virus in culture; type: functional; details: Mycobacterium tuberculosis
[27] = target: Voltage-gated N-type calcium channel alpha-1B subunit/Amyloid beta A4 precursor protein-binding family A member 1 (Homo sapiens, UniProt Q00975+Q02410); type: protein assay
[28] = target: Eukaryotic translation initiation factor 4E (Mus musculus, UniProt P63073); assay: blockers of eIF4G binding by eIF4E – biochemical, TR-FRET, dose response (AID 855); type: functional;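 further: potency for disrupting eIF4E binding to eIF4GI seen as loss of FRET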
[29] = target: T5, Calpain-2 catalytic subunit (Sus scrofa, UniProt P43367); assay: m-calpain protease blockers, concentration series – biochemical, fluorogenic peptide substrate, dose response (AID 1420); type: functional
T5 sequence (P43367 whole entry): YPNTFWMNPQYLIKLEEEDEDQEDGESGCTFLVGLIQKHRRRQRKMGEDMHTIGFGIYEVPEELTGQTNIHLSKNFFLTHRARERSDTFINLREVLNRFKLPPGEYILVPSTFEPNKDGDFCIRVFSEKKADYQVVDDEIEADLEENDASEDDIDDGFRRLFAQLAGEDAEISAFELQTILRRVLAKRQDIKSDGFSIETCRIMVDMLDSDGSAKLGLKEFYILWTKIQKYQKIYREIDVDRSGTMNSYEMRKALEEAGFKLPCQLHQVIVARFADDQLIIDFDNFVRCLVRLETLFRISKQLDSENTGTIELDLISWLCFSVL

[30] = target: T6, Dual specificity protein phosphatase 6 (Rattus norvegicus, UniProt Q64346); assay: inhibition of rat DUSP6 enzyme activity – biochemical, in vitro, primary screen (AID 425)
T6 sequence (Q64346 whole entry): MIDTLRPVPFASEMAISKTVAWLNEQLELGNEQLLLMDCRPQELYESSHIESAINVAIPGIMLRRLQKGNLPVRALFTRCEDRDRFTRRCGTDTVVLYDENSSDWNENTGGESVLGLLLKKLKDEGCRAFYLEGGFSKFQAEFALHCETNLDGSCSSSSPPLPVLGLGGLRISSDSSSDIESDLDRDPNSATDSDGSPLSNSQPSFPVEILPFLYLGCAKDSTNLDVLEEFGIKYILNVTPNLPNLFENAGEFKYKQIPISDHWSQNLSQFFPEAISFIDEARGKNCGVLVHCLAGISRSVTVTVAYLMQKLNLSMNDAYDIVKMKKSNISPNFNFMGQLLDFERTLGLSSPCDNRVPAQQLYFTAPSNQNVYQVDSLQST

[31] = viability of uninfected HEp-2 cells – cell-based, HTS, cytotoxicity control for RSV inhibitor project, dose response (AID 2410); type: functional; details: human respiratory syncytial virus
[32] = target: T7, Dual specificity protein phosphatase 3 (Homo sapiens, UniProt P51452); assay: VHR1 phosphatase inhibitors, biochemical (AID 1878)
[33] = target: T7, Dual specificity protein phosphatase 3; assay: VHR1 phosphatase inhibitors, primary screen, biochemical, absorbance, uHTS (AID 1654)
[34] = target: T8, Tyrosine-protein phosphatase non-receptor type 22 (Homo sapiens, UniProt Q9Y2R2); assay: inhibition of lymphoid tyrosine phosphatase LYP – biochemical, pCAP fluorogenic substrate, fluorescence, set 3, SAR follow-up (AID 449727); type: functional
T8 sequence (Q9Y2R2 whole entry): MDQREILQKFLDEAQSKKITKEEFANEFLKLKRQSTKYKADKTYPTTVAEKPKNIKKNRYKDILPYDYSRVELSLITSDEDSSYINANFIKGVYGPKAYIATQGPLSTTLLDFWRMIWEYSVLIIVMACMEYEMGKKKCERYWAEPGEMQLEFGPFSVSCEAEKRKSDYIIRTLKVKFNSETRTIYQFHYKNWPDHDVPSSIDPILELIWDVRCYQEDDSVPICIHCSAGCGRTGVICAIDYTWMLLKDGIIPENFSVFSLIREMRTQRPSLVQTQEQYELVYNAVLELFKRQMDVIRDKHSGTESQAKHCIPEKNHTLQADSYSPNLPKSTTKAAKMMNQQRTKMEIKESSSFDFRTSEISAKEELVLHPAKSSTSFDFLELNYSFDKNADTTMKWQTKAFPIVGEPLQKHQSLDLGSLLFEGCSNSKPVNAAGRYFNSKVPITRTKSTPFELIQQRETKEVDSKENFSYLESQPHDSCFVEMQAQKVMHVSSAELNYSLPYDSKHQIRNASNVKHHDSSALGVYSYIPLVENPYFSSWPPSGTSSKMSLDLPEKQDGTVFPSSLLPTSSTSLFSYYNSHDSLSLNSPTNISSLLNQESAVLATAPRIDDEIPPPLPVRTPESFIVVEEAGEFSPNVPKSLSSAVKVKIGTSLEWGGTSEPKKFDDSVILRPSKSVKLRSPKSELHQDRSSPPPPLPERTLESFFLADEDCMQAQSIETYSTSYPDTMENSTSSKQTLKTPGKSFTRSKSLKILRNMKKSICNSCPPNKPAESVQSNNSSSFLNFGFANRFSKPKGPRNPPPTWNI

[35] = target: T8, Tyrosine-protein phosphatase non-receptor type 22; assay: SAR LYP1 Fluorescent Assay using OMFP substrate for In Vitro dose response studies - Set 3. [Related pubchem assays (depositor defined):AID1779, AID1784, AID2140, AID2686]; type: functional
[36] = target: Tyrosine-protein phosphatase non-receptor type 12 (Homo sapiens, UniProt Q05209); assay: SAR Selectivity Analysis of small molecule inhibitors of PEST using pCAP in a fluorescence assay. [Related pubchem assays (depositor defined):AID1779, AID1784, AID2135]; type: functional
[37] = target: G-protein coupled receptor 55 (Homo sapiens, UniProt Q9Y2T6); assay: blockers of GPR55 signalling, imaged – imaging, image-based, counter-screen for GPR35 antagonist project, SAR follow-up (AID 2397); type: functional
G-protein coupled receptor 55, sequence (Q9Y2T6 whole entry): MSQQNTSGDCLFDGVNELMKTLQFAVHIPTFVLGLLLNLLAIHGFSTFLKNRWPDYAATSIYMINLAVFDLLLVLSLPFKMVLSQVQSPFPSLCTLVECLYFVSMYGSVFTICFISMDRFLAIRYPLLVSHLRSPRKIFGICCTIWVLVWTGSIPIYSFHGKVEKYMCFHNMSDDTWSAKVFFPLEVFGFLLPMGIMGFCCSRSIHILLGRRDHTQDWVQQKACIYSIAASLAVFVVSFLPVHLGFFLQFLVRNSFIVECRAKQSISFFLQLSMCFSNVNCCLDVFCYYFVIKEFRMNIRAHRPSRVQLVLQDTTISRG

T1 sequence (P41145 whole entry): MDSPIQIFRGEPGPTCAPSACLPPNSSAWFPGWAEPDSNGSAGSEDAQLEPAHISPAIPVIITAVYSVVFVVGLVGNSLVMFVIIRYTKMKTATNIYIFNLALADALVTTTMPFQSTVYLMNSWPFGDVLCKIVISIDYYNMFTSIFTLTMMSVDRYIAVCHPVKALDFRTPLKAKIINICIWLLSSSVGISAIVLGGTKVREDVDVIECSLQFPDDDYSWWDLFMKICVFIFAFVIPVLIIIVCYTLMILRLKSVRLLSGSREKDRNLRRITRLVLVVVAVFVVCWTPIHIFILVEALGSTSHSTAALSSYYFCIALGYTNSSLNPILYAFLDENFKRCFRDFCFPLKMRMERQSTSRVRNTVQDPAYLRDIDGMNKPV
T2 sequence (P41143 whole entry): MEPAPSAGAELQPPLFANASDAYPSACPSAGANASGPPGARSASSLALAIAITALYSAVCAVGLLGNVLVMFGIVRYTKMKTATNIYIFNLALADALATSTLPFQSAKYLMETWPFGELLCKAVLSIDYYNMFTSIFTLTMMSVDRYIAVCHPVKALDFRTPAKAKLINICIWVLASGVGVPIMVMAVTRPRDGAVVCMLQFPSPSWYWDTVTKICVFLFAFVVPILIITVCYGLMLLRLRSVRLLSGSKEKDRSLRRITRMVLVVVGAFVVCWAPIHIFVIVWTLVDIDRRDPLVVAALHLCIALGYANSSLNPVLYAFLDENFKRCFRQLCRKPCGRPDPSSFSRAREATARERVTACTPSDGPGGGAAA
T7 sequence (P51452 whole entry): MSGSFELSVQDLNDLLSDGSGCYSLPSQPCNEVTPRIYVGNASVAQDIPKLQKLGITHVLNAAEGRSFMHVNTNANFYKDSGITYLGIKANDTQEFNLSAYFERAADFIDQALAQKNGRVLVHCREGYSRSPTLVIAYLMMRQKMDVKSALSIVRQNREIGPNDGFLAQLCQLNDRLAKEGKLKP
Tyrosine-protein phosphatase non-receptor type 12, sequence (Q05209 whole entry): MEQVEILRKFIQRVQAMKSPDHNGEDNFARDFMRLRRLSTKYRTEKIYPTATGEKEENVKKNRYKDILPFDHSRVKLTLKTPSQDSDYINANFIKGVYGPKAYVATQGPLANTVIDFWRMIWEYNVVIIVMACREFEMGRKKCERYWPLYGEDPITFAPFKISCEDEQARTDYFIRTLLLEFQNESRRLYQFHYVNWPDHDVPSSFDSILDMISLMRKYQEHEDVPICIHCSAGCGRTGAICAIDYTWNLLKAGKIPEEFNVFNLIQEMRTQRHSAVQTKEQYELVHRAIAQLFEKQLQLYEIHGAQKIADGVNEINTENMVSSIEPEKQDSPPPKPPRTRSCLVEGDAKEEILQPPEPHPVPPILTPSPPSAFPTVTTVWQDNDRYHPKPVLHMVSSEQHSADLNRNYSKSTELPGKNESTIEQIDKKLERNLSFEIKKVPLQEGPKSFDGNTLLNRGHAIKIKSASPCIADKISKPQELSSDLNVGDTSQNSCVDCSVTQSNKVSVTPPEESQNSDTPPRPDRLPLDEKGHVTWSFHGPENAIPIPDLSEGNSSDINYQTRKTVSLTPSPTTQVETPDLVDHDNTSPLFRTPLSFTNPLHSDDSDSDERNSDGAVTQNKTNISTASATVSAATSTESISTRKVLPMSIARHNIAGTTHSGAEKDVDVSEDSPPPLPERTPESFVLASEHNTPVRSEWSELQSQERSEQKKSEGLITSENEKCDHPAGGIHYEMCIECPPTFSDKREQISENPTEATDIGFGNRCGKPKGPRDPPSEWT
Beta-galactosidase, sequence (Q8VNN2 whole entry): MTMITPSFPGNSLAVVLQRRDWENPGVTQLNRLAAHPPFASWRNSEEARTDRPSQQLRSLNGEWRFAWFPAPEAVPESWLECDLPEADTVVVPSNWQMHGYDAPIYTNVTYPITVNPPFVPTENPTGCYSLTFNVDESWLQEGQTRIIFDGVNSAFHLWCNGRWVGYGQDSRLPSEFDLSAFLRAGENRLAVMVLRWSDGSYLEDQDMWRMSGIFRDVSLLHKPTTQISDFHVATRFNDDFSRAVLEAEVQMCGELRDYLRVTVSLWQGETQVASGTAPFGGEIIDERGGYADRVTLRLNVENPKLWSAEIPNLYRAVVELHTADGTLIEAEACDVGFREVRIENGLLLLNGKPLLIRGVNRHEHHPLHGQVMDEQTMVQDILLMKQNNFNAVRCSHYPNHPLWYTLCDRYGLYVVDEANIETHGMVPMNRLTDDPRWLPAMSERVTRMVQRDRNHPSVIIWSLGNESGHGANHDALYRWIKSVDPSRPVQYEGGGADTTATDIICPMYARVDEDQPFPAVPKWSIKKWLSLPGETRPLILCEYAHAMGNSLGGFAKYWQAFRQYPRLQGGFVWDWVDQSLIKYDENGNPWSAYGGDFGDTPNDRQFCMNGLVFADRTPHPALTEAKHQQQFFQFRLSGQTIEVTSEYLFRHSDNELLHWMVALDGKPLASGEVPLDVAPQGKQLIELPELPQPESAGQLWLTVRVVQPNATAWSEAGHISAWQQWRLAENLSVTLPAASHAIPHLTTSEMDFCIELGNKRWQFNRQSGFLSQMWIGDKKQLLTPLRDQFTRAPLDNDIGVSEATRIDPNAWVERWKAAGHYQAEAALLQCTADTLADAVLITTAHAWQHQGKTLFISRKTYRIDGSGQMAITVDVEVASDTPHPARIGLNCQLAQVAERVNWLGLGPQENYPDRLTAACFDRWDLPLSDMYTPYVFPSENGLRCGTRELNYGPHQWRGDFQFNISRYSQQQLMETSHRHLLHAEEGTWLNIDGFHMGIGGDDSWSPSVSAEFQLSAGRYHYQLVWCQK
Eukaryotic translation initiation factor 4E, sequence (P63073 whole entry): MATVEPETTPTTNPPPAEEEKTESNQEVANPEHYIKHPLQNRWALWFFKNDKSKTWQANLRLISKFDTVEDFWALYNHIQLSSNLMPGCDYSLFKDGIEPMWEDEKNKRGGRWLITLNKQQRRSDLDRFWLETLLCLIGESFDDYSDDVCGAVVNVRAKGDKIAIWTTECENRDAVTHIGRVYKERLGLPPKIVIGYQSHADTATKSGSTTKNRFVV
Nonstructural protein 1, sequence (Q194T2 whole entry): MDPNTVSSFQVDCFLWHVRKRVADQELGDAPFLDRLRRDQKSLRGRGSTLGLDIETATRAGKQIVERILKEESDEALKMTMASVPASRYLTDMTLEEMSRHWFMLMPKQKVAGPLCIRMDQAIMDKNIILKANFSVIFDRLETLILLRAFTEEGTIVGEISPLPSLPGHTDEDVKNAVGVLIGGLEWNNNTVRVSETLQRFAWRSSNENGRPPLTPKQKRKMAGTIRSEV
Mu-type opioid receptor, sequence (P35372 whole entry): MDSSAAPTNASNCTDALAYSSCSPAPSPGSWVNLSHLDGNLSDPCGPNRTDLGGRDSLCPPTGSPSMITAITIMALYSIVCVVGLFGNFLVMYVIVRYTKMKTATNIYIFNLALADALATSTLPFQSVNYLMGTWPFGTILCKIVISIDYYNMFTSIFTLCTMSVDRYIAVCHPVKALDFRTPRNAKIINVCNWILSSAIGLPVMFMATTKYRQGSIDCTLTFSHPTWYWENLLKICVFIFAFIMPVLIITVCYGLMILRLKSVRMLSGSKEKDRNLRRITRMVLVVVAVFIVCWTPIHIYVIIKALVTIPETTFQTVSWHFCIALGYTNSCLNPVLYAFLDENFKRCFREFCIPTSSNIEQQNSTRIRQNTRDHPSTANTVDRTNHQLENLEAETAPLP

Oc1ccc(CN2CCc3ccccc3C2)c2cccnc12
> 150 µM (not active): EC50 [17]
active: IC50 [1] 14 µM | IC50 [2] 5.76 µM | IC50 [3] 1.96 µM | AC50 [4] 673 nM | EC50 [5] 13.8 µM | AC50 [6] 1.83 µM | EC50 [10] 6.14 µM | EC50 [11] < 100 nM | IC50 [12] 1.69 µM | EC50 [14] 5.88 µM | AC50 [15] 971 nM | EC50 [16] 529 nM | EC50 [18] 7.5 µM | EC50 [19] 1.52 µM | AC50 [20] 1.69 µM | EC50 [21] 4.63 µM | EC50 [22] 1.82 µM | EC50 [24] 528 nM | CC50 [26] 1.62 µM
> 350 µM (not active): EC50 [23]
> 32 µM: IC50 [13]
inactive: EC50 [7] > 32 µM | EC50 [8] > 32 µM | IC50 [9] > 32 µM | EC50 [25] > 31.5 µM

O=C(Nc1ccc(Cl)c(Cl)c1)Nc1nnc(-c2ccncc2)s1
active: IC50 [27] 21.1 µM | IC50 [29] 3.64 µM | IC50 [30] 16.2 µM | CC50 [31] 5.14 µM | IC50 [32] 1.56 µM | IC50 [33] 5.3 µM
inactive: IC50 [28] > 64 µM

CCOC(=O)c1ccc(NC(=O)CCCN2C(=O)/C(=C/c3ccccc3)SC2=S)cc1
inactive: IC50 [34] > 100 µM | IC50 [35] > 100 µM | IC50 [37] > 32 µM
active: IC50 [36] 94.2 µM
